This passage reports microsomal CLint results from ChEMBL document CHEMBL1154594, “Delta agonist hydroxy bioisosteres: the discovery of 3-((1-benzylpiperidin-4-yl){4-[(diethylamino)carbonyl]phenyl}amino)benzamide with improved delta agonist activity and in vitro metabolic stability” (Bioorg Med Chem Lett, 2009).

Data set [1] can be described thus: Intrinsic clearance in rat liver microsomes. In kind it is ADME, Microsome. For orientation: Liver microsomes are a subcellular fraction often used to study metabolism.
Data set [2] in a line: Intrinsic clearance in human liver microsomes. In kind it is ADME, Microsome.

Turning to `CCN(CC)C(=O)c1ccc(N(c2cccc(O)c2)C2CCN(Cc3ccccc3)CC2)cc1`, the microsomal CLint in data set [1] came out at 384 µL/min/mg; in data set [2] it was 286 µL/min/mg.

For `CCN(CC)C(=O)c1ccc(N(c2cccc(NC(C)=O)c2)C2CCN(Cc3ccccc3)CC2)cc1`, the microsomal CLint in data set [2] stood at 139 µL/min/mg.

In turn, `CCN(CC)C(=O)c1ccc(N(c2cccc(NC(=O)OC)c2)C2CCN(Cc3ccccc3)CC2)cc1` displayed a microsomal CLint in data set [2] of 200 µL/min/mg. Take `CCN(CC)C(=O)c1ccc(N(c2cccc(C(N)=O)c2)C2CCN(Cc3ccccc3)CC2)cc1`: the microsomal CLint in data set [1] is 62 µL/min/mg; in data set [2], 71 µL/min/mg. For `CCN(CC)C(=O)c1ccc(N(c2cccc(NS(C)(=O)=O)c2)C2CCN(Cc3ccccc3)CC2)cc1`, the microsomal CLint in data set [2] was found to be 96 µL/min/mg.

What is called microsomal CLint is the rate of metabolic loss divided by the concentration. Low readings indicate greater metabolic stability, high ones faster metabolism.
